# Assay results: US8791132B2, “Compounds and methods for treatment of hypertension” (Medivation Technologies, Inc., priority 2011, dated 2014)
# pKi: −log10 of the molar value. Values joined by “and” are separate entries in the source; they are usually repeats but may differ in a detail not shown here. Identical values can stand only once. Like-named read-outs stand apart in the source and are kept apart here.
# Legend:
# [1] = molecular target: T1, human recombinant adrenergic α2B receptor (Homo sapiens, UniProt P18089); assay: Radioligand binding, adrenergic α2B ([3H]Rauwolscine); settings: for pKi: read-out: Ki α2B
# T1 construct: expressed in transfected cells; host or cells: CHO-K1
# T1 sequence (P18089 1-450): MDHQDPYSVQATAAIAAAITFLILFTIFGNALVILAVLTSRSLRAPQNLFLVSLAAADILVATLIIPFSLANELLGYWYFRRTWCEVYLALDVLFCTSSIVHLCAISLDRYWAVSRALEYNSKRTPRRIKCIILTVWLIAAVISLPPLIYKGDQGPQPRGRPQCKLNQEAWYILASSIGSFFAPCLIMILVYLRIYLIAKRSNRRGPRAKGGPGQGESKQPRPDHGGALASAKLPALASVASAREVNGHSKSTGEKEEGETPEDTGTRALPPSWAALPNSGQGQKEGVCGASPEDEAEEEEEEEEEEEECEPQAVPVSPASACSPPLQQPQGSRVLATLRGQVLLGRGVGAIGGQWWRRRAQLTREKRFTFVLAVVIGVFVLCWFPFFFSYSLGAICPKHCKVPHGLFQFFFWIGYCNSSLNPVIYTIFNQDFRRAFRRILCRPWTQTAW
# Summary of the method: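 Readout: percent inhibition of specific [3H]Rauwolscine binding, measured by filtration and counting. Conditions: CHO-K1 cell-expressed receptor, 2.5 nM radioligand, 60 min, 25° C, Tris-HCl pH 7.4 buffer with MgCl2, EDTA, BSA. Non-specific binding: 10 μM Prazosin.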
# [2] = molecular target: T2, human recombinant adrenergic α2A receptor (Homo sapiens, UniProt P08913); assay: Radioligand binding, adrenergic α2A ([3H]MK-912); settings: for Percentage inhibition of ligand binding, Adrenergic α2A / inhibition at 0.1 µM / Percentage inhibition of ligand binding, Adrenergic α2A (0.1 μM) / inhibition at 0.03 µM: [3H]MK-912; for Percentage inhibition of ligand binding, Adrenergic α2A / Percentage inhibition of ligand binding, Adrenergic α2A (0.1 μM): 0.1 µM; for inhibition at 0.03 µM: read-out: Percentage inhibition of ligand binding, Adrenergic α2A (0.03 μM), compound at 0.03 μM
# T2 construct: expressed in transfected cells; host or cells: insect Sf9 cells
# T2 sequence (P08913 1-465): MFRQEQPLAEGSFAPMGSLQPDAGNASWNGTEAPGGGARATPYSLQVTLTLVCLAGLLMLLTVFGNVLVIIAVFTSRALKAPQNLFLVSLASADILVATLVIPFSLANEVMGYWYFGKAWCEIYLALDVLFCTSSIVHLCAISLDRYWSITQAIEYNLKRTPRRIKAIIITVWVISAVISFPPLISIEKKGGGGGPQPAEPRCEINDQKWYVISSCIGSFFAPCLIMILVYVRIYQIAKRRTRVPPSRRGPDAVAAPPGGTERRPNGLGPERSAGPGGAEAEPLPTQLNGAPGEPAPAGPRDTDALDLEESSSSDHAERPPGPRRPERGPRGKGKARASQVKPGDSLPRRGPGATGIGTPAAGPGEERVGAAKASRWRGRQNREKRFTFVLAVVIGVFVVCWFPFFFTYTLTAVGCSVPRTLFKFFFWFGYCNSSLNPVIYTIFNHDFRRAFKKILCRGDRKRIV
# Summary of the method: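 In 50 mM Tris-HCl (pH 7.4) containing 12.5 mM MgCl2 and 2 mM EDTA, Sf9-expressed receptor was exposed to test compound plus 1 nM [3H]MK-912 at 25 °C for 60 min. Specific binding, corrected using 10 μM WB-4101, was quantified by filtration and counting and expressed as percent inhibition.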
# [3] = molecular target: T3, rat adrenergic α1B receptor (Rattus norvegicus, UniProt P15823); assay: Radioligand binding, adrenergic α1B ([3H]Prazosin); settings: [3H]Prazosin; for Percentage inhibition of ligand binding, Adrenergic α1B / Percentage inhibition of ligand binding, Adrenergic α1B (0.1 μM): 0.1 µM; for inhibition at 0.03 µM: read-out: Percentage inhibition of ligand binding, Adrenergic α1B (0.03 μM), compound at 0.03 μM
# T3 construct: rat adrenergic α1B receptor obtained from Wistar Rat liver; from tissue; host or cells: Wistar rat liver
# T3 sequence (P15823 1-515): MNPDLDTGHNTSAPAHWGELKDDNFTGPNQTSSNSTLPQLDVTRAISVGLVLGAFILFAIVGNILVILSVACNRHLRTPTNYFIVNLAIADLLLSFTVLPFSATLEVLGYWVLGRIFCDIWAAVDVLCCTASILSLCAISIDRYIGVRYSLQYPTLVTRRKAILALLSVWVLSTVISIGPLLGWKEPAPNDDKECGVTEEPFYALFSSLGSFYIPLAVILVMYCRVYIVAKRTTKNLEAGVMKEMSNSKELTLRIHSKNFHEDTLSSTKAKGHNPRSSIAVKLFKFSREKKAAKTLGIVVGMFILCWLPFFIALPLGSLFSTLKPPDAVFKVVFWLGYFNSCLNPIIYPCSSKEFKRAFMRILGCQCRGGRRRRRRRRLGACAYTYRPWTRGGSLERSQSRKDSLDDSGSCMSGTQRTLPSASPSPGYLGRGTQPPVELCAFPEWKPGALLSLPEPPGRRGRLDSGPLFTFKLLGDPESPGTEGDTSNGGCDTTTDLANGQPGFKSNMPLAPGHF
# Summary of the method: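 Filter binding with Wistar rat liver α1B preparation: test compound plus 0.25 nM [3H]prazosin, 1 h at 25° C in modified Tris-HCl buffer pH 7.4.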
# [4] = compound at 0.03 μM, [3H]Rauwolscine, repeat assays, each datapoint shown, 0.03 µM
# [5] = compound at 0.1 μM, repeat assays, each datapoint shown
# [6] = compound at 0.03 μM, [3H]Rauwolscine, repeat assays, each datapoint shown, read-out: Percentage inhibition of ligand binding, Adrenergic α2B
# [7] = compound at 0.03 μM, [3H]Rauwolscine, repeat datapoints each shown, 0.03 µM
# [8] = compound at 0.1 μM, repeat datapoints each shown
# [9] = read-out: Percentage inhibition of ligand binding, Adrenergic α2B (0.03 μM), compound at 0.03 μM, [3H]Rauwolscine, repeat datapoints each shown
# [10] = read-out: Percentage inhibition of ligand binding, Adrenergic α1B (0.1 μM), compound at 0.1 μM, repeat datapoints each shown
smiles,measurement,setting,value
"CN1CCc2c(c3cccc(Cl)c3n2CC(C)(O)c2cccnc2)C1 (single isomer, unassigned) [57b, 1-(6-chloro-2-methyl-1,2,3,4-tetrahydro-pyrido[4,3-b]indol-5-yl)-2-pyridin-3-yl-propan-2-ol]","Percentage inhibition of ligand binding, Adrenergic α2B",[1]; [4],84%
same,"Percentage inhibition of ligand binding, Adrenergic α2A",[2]; [5],24%
same,"Percentage inhibition of ligand binding, Adrenergic α1B",[3]; [5],9%
"Cc1cnc2c(c1)c1c(n2CC(O)c2ccncc2)CCNC1 (single isomer, unassigned) [58a, 2-(3-methyl-5,6,7,8-tetrahydro-1,6,9-triaza-fluoren-9-yl)-1-pyridin-4-yl-ethanol]","Percentage inhibition of ligand binding, Adrenergic α2B",[1]; [4],5%
same,"Percentage inhibition of ligand binding, Adrenergic α2A",[2]; [5],9%
same,"Percentage inhibition of ligand binding, Adrenergic α1B",[3]; [5],7%
"Cc1cnc2c(c1)c1c(n2CC(O)c2ccncc2)CCNC1 (single isomer, unassigned) [58b, 2-(3-methyl-5,6,7,8-tetrahydro-1,6,9-triaza-fluoren-9-yl)-1-pyridin-4-yl-ethanol]","Percentage inhibition of ligand binding, Adrenergic α2B",[1]; [4],39%
same,"Percentage inhibition of ligand binding, Adrenergic α2A",[2]; [5],0%
same,"Percentage inhibition of ligand binding, Adrenergic α1B",[3]; [5],24%
"CN1CCc2c(c3cc(C(F)(F)F)ccc3n2CC(O)c2cccnc2)C1 (single isomer, unassigned) [59a]","Percentage inhibition of ligand binding, Adrenergic α2B",[1]; [4],15%
same,inhibition at 0.1 µM,"[2]; compound at 0.1 μM, repeat assays, each datapoint shown, read-out: Percentage inhibition of ligand binding, Adrenergic α2A",18%
same,inhibition at 0.1 µM,"[3]; compound at 0.1 μM, repeat assays, each datapoint shown, read-out: Percentage inhibition of ligand binding, Adrenergic α1B",11%
"CN1CCc2c(c3cc(C(F)(F)F)ccc3n2CC(O)c2cccnc2)C1 (single isomer, unassigned) [59b]","Percentage inhibition of ligand binding, Adrenergic α2B",[1]; [4],31%
same,"Percentage inhibition of ligand binding, Adrenergic α2A",[2]; [5],12%
same,"Percentage inhibition of ligand binding, Adrenergic α1B",[3]; [5],7%
"Cc1cnc2c(c1)c1c(n2CCc2ccc(C)nc2)CCN2CCCC12 (single isomer, unassigned) [74b, 10-methyl-7-(2-(6-methylpyridin-3-yl)ethyl)-2,3,5,6,7,11c-hexahydro-1H-pyrido[3′,2′:4,5]pyrrolo[2,3-g]indolizine]",inhibition at 0.03 µM,[1]; [6],27%
same,"Percentage inhibition of ligand binding, Adrenergic α2A",[2]; [5],14%
same,"Percentage inhibition of ligand binding, Adrenergic α1B",[3]; [5],28%
"Cc1ccc2c(c1)c1c(n2CC(O)c2ccncc2)CC2CCCN2C1 (single isomer, unassigned) [76a]","Percentage inhibition of ligand binding, Adrenergic α2B",[1]; [4],92%
same,"Percentage inhibition of ligand binding, Adrenergic α2A",[2]; [5],21%
same,"Percentage inhibition of ligand binding, Adrenergic α1B",[3]; [5],78%
"Cc1ccc2c(c1)c1c(n2CC(O)c2ccncc2)CC2CCCN2C1 (single isomer, unassigned) [76b]","Percentage inhibition of ligand binding, Adrenergic α2B",[1]; [4],34%
same,"Percentage inhibition of ligand binding, Adrenergic α2A",[2]; [5],18%
same,"Percentage inhibition of ligand binding, Adrenergic α1B",[3]; [5],71%
"Cc1ccc2c(c1)c1c(n2CC(O)c2ccncc2)CC2CCCN2C1 (single isomer, unassigned) [76c]","Percentage inhibition of ligand binding, Adrenergic α2B",[1]; [4],35%
same,"Percentage inhibition of ligand binding, Adrenergic α2A",[2]; [5],5%
same,"Percentage inhibition of ligand binding, Adrenergic α1B",[3]; [5],33%
"Cc1ccc2c(c1)c1c(n2CC(O)c2ccncc2)CC2CCCN2C1 (single isomer, unassigned) [76d]","Percentage inhibition of ligand binding, Adrenergic α2B",[1]; [4],91%
same,"Percentage inhibition of ligand binding, Adrenergic α2A",[2]; [5],40%
same,"Percentage inhibition of ligand binding, Adrenergic α1B",[3]; [5],51%
"Cc1ccc2c(c1)c1c(n2CC(C)(O)c2ccc(F)cc2)CCN(C)C1 (single isomer, unassigned) [90a]",inhibition at 0.03 µM,[1]; [6],97%
same,"Percentage inhibition of ligand binding, Adrenergic α2A",[2]; [5],71%
same,"Percentage inhibition of ligand binding, Adrenergic α1B",[3]; [5],74%
"Cc1ccc2c(c1)c1c(n2CC(C)(O)c2ccc(F)cc2)CCN(C)C1 (single isomer, unassigned) [90b]","Percentage inhibition of ligand binding, Adrenergic α2B","[1]; compound at 0.03 μM, [3H]Rauwolscine, repeat assays, each datapoint shown",97%
same,"Percentage inhibition of ligand binding, Adrenergic α2A",[2]; [5],82%
same,"Percentage inhibition of ligand binding, Adrenergic α1B",[3]; [5],81%
"Cc1ccc(C(C)(O)Cn2c3c(c4cc(Cl)ccc42)CN(C)CC3)cn1 (single isomer, unassigned) [93a]","Percentage inhibition of ligand binding, Adrenergic α2B (0.03 μM)",[1]; [7],63% and 102%
same,pKi,[1],8.94
same,pKi,[2],7.04
same,"Percentage inhibition of ligand binding, Adrenergic α2A (0.1 μM)",[2]; [8],25% and 36%
same,inhibition at 0.03 µM,[2]; repeat datapoints each shown,14%
same,"Percentage inhibition of ligand binding, Adrenergic α1B (0.1 μM)",[3]; [8],37%
same,inhibition at 0.03 µM,[3]; repeat datapoints each shown,13%
"Cc1ccc(C(C)(O)Cn2c3c(c4cc(Cl)ccc42)CN(C)CC3)cn1 (single isomer, unassigned) [93b]","Percentage inhibition of ligand binding, Adrenergic α2B (0.03 μM)",[1]; [7],26%
same,"Percentage inhibition of ligand binding, Adrenergic α2A (0.1 μM)",[2]; [8],−5%
same,"Percentage inhibition of ligand binding, Adrenergic α1B (0.1 μM)",[3]; [8],1%
"Cc1ccc2c(c1)c1c(n2CC(C)(O)c2cccnc2)CNCC1 (single isomer, unassigned) [128a]","Percentage inhibition of ligand binding, Adrenergic α2B (0.03 μM)",[1]; [7],100%
same,pKi,[1],9.01
same,inhibition at 0.03 µM,[1]; [9],97%
same,inhibition at 0.1 µM,"[1]; read-out: Percentage inhibition of ligand binding, Adrenergic α2B (0.1 μM), compound at 0.1 μM, [3H]Rauwolscine, repeat datapoints each shown",104%
same,pKi,[2],7.01
same,"Percentage inhibition of ligand binding, Adrenergic α2A (0.1 μM)",[2]; [8],34%
same,inhibition at 0.03 µM,[2]; repeat datapoints each shown,9%
same,inhibition at 0.1 µM,"[2]; read-out: Percentage inhibition of ligand binding, Adrenergic α2A (0.1 μM), compound at 0.1 μM, repeat datapoints each shown",31%
same,"Percentage inhibition of ligand binding, Adrenergic α1B (0.1 μM)",[3]; [8],45%
same,inhibition at 0.03 µM,[3]; repeat datapoints each shown,14%
same,inhibition at 0.1 µM,[3]; [10],37%
"Cc1ccc2c(c1)c1c(n2CC(O)c2ccncc2)CCN2CCCC12 (single isomer, unassigned) [129c]",pKi,[1],9.11
same,inhibition at 0.03 µM,[1]; [9],100%
same,pKi,[2],7.05
same,"Percentage inhibition of ligand binding, Adrenergic α1B (0.1 μM)",[3]; [8],96%
same,inhibition at 0.03 µM,[3]; repeat datapoints each shown,86%
same,inhibition at 0.1 µM,[3]; [10],94%
